Measured values taken from EP4778929A1, “NOVEL TYPE I TOPOISOMERASE INHIBITOR, AND PREPARATION METHOD THEREFOR AND USE THEREOF” (priority 2023, dated 2025).
Where two headings read alike, the source gives them in different places.

Tests used:
[1] = molecular target: T1, topoisomerase I (Topo I) (Homo sapiens, UniProt P11387); assay: Topo I enzyme-inhibitory activity by agarose-gel electrophoresis (plasmid relaxation); assay type: biochemical
T1 sequence (P11387 1-765): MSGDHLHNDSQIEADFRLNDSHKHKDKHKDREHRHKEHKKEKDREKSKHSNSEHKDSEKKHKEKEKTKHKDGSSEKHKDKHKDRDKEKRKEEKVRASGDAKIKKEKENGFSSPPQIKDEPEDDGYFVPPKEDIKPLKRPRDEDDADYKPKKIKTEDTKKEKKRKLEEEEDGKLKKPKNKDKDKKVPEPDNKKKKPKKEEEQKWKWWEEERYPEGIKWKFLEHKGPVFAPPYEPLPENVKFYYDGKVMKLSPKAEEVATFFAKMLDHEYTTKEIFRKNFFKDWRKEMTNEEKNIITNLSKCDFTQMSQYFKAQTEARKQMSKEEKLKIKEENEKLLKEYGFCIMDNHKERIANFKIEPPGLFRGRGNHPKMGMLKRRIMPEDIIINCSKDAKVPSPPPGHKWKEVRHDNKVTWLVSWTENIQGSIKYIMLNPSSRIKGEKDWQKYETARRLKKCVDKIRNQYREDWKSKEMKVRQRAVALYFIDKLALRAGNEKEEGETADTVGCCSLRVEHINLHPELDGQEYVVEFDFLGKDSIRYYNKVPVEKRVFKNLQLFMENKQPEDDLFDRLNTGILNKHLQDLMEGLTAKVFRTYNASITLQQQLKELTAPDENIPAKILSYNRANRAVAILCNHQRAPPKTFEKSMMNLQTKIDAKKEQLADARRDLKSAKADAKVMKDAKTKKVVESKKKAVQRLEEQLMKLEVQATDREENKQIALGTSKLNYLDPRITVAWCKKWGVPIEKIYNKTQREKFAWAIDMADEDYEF
How it was run: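 Supercoiled pNO1 plasmid (0.5 µg) was relaxed by Topo I (0.75 U) in 20 mM Tris-HCl pH 7.5, 200 mM NaCl, 0.25 mM EDTA, 5 % glycerol, 5 % DMSO final, for 30 min at 37 °C. Supercoiled band intensity on agarose gel was normalized to no-enzyme and vehicle controls. IC50 from a four-parameter logistic fit.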

[2] = Pharmacokinetic study in mice, plasma concentrations by LC-MS/MS; conditions: mouse, in vivo

| SMILES | IC50 [1] [nM] | AUC(0-t) at 24 h ([2]; iv, 2 mg/kg) [ng·h/mL] | Cmax ([2]; iv, 2 mg/kg) [ng/mL] | clearance ([2]; iv, 2 mg/kg) [mL/min/kg] | half-life ([2]; iv, 2 mg/kg) [min] | AUC(0-t) at 24 h ([2]; po, 20 mg/kg) [ng·h/mL] | Cmax ([2]; po, 20 mg/kg) [ng/mL] | Tmax ([2]; po, 20 mg/kg) [min] | bioavailability ([2]; po, 20 mg/kg) [%] | half-life ([2]; po, 20 mg/kg) [min] | IC50 ([1]; read-out: inhibition of topoisomerase I (Topo I) enzymatic activity, IC50, 0.75 U Topo I, pNO1 plasmid, 37 °C, 30 min, compounds listed by group (Group A / Group B)) [nM] | AUC(0-t) at 24 h ([2]; iv, 1 mg/kg) [ng·h/mL] | Cmax ([2]; iv, 1 mg/kg) [ng/mL] | clearance ([2]; iv, 1 mg/kg) [mL/min/kg] | half-life ([2]; iv, 1 mg/kg) [min] |
| --- | --- | --- | --- | --- | --- | --- | --- | --- | --- | --- | --- | --- | --- | --- | --- |
| CC[C@@]1(O)C(=O)OCc2c1cc1n(c2=O)Cc2c-1c(=O)c1cc(F)cc(C)c1n2C [Example 2, (S)-4-ethyl-8-fluoro-4-hydroxy-10,11-dimethyl-1,12-dihydro-14H-pyrano[3,4:6,7]indolizino[2,1-b]quinoline-3,6,14(4H,11H)-trione] | < 200 | 323 | 604 | 110 | 69.6 | 911 | 956 | 25.2 | 28.5 | 135 |  |  |  |  |  |
| CC[C@@]1(O)C(=O)OCc2c1cc1n(c2=O)Cc2c-1c(=O)c1cc(F)ccc1n2CCN(C)C1CCCC1 [Example 117] |  |  |  |  |  |  |  |  |  |  | 200 to 500 | 38.7 | 107 | 439 | 14.1 |
